Values of other authors, collected in patent US20210161950A1, “Veterinary Supplement for Effecting Bone and Cartilage” (priority 2017, published 2021).

How the values were obtained:
osteoarthritis = conditions: meta-analysis
[1] = system: degenerated cartilage of the mandibular joint; conditions: oral strontium

N[C@H]1C(O)O[C@H](CO)[C@@H](O)[C@@H]1O (stereo partly drawn) [glucosamine]
new bone formation and osteoblast lining (bone fractures in rats; glucosamine-treated rats compared to control groups): significantly higher | healing time of bone fractures (bone fractures in rats; rats): helped accelerate the healing time | mobility of joints (osteoarthritis): Improves mobility of joints | osteoarthritis progression (osteoarthritis): Reduces osteoarthritis progression | pain (osteoarthritis): Reduces pain | risk of total joint replacement (osteoarthritis): Reduces risk of total joint replacement

N[C@H]1C(O)O[C@H](CO)[C@@H](O)[C@@H]1O.O=S(=O)(O)O (stereo partly drawn) [glucosamine sulfate]
connective tissue surrounding bones (bone fractures in rats; rats, after 4 weeks of 230 milligrams glucosamine sulfate daily): more cellular and vascular | strength of newly formed, previously fractured bones (bone fractures in rats; rats, after 4 weeks of 230 milligrams glucosamine sulfate daily, compared to controls): stronger compared to controls

[Sr+2] [strontium]
cartilage thickness and cell density [1]: increased cartilage thickness and cell density | expression of cartilage catabolic factors and pro-inflammatory cytokines [1]: decreased expression | expression of cartilage matrix molecules such as Collagen II and aggrecan [1]: increased expression | subchondral bone loss and mandibular condylar cartilage degradation [1]: reversed
